Assay results: paper PMC11972452 (ACS infectious diseases, 2024)

Biological target: OXA-58 (Acinetobacter baumannii, UniProt Q2TR58)
Test: time-resolved X-ray crystallography of the acyl-enzyme complex
Assay type: biochemical
Conditions: read-out: Ki

OXA-58, sequence (Q2TR58 19-280): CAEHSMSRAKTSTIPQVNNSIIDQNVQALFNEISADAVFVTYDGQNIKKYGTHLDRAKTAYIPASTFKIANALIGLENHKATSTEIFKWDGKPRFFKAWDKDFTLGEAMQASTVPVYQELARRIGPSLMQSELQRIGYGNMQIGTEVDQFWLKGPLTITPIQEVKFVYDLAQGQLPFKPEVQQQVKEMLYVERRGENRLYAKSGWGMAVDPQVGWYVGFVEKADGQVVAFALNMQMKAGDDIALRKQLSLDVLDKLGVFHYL

CC(O)[C@H]1C(=O)N2C(C(=O)O)=C(S[C@H]3CNC(C(=O)N(C)C)C3)C[C@]12C (stereo partly shown) [NA-1-157, NA-1–157] gave a KI (inactivation) of 1.9 ± 0.3 µM.
